Experimental data from patent US20260137678A1, “METHODS FOR TREATING OR PREVENTING NEUROENDOCRINE TUMOR FORMATION USING XPO1 INHIBITORS” (priority 2022, published 2026).

Test system: MSK_Lx151 PDX
Assay type: in vivo
Text: FIGS. 4A-4I: Exportin 1 inhibition interferes with NE transformation. In vivo treatment of cell line xenografts for TP53/RB1 DKO 22PC (FIG. 4A) and LnCap/AR (FIG. 4D) PRAD cells with enzalutamide, selinexor or their combination. 5-10 female (22PC) or male (LnCap/AR) 6-week-old athymic nude mice were subcutaneously engrafted per treatment arm and until tumors reached 100-150 mm^3. At that point, mice were randomized into groups and treated with either vehicle (n=7 for 22PC and n=4 for LnCap/AR), selinexor (10 mg/kg p.o. QDx3, n=7 for 22PC and n=4 for LnCap/AR), enzalutamide (10 mg/kg p.o. QDx5, n=7 for 22PC and n=5 for LnCap/AR), or the combinations of enzalutamide+selinexor at the previously mentioned doses (n=9 for 22PC and n=5 for LnCap/AR). Mice weights and tumor volumes were measured twice a week and mice were sacrificed when tumors reached humane endpoint (volume=1000 mm^3). Tumor volumes are shown as normalized volume in arbitrary units (au). Each tumor was normalized to its volume at day 0 of treatment. Representative IHC images for synaptophysin (SYP) and chromogranin A (CHGA) staining in DKO 22PC (FIG. 4B) and LnCap/AR (FIG. 4E) tumors. Quantification of SYP- or CHGA-positive cells, normalized to tissue area, in immunohistochemical tissue stains in DKO 22PC (n=6, 5, 4 and 4 tumor for control, selinexor-, enzalutamide and combo-treated arms, respectively) (FIG. 4C) and LnCap/AR (FIG. 4F) (n=5, 5, 6 and 6 randomly selected tissue pieces for control, selinexor-, enzalutamide and combo-treated arms, respectively) tumors. Positive cells were counted, tissue area (viable tumor area) was estimated using the SketchAndCalc online app (https://www.sketchandcalc.com/), and positive-stained cells were normalized by estimated area. […] Mice weights and tumor volumes were measured twice a week and mice were sacrificed when tumors reached humane endpoint (volume=1000 mm^3). […] For FIGS. 4A, 4C, 4D and 4F, P-values were calculated using the Student's t-test (unpaired, heterogeneous variances, two-tailed). […]

In the case of `O=C(/C=C\n1cnc(-c2cc(C(F)(F)F)cc(C(F)(F)F)c2)n1)NNc1cnccn1` [selinexor], the “T/C at control arm endpoint” value (osimertinib 25 mg/kg p.o. QDx5, selinexor 10 mg/kg p.o. QDx3, combination at same doses) is reported as 57.67% and the “SOX2 protein upregulation induced by targeted therapy (western blot)” value (selinexor added to osimertinib) is reported as “suppressed”.
